Where a name gives a salt, the structure may show the parent alone. Read-outs that look alike come from different tables or passages of the source.
Assays:
hPXR [1] = molecular target: T1, hPXR (Homo sapiens, UniProt O75469)
T1 sequence (O75469 1-434): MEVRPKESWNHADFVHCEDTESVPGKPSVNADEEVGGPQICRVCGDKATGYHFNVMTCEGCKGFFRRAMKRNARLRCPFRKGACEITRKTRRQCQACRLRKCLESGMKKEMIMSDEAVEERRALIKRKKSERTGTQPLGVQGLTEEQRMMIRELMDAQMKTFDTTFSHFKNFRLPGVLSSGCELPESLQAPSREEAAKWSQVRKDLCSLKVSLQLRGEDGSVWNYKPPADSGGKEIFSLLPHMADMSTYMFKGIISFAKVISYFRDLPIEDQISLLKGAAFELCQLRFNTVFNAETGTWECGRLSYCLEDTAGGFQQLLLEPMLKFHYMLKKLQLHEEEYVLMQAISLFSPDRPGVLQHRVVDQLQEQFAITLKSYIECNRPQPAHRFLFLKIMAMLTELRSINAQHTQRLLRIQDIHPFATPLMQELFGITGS

CYP3A4 mRNA expression [2] = assay: CYP3A4 mRNA induction in HepaRG cells; conditions: 24 h treatment, Fig. 2A; for CYP3A4 mRNA induction (result in words): compared with vehicle or RIF 10 μM
hPXR [3] = molecular target: T1, hPXR; assay: cell-based
CYP3A4 mRNA expression [4] = system: CYP3A4 mRNA expression
CYP2B6 mRNA expression = assay: CYP2B6 mRNA induction in HepaRG-PXR-KO cells versus HepaRG cells; format: cell-based, human; conditions: HepaRG-PXR-KO vs HepaRG, 24 h, Fig. 5B
CYP3A4 mRNA expression [5] = assay: CYP3A4 mRNA induction in HepaRG-PXR-KO cells versus HepaRG cells; format: cell-based, human; conditions: HepaRG-PXR-KO vs HepaRG, 24 h, Fig. 5A
[6] = PXR Primary EC50, qHTS primary screen, hPXR-Luc HepG2, 24 h
[7] = qHTS primary screen, hPXR-Luc HepG2, 24 h, relative to positive control RIF

Row | Compound | PXR Follow-up Efficacy (hPXR [1]) | PXR Primary Efficacy (hPXR [1]) | EC50 (hPXR [3]) [µM] | EC50 (hPXR [3]; [6]) [µM] | PXR Primary Efficacy (hPXR [1]; [7]) [%] | further results
1 | O=C(CCCN1CCC2(CC1)C(=O)NCN2c1ccccc1)c1ccc(F)cc1 [Spiperone] | 6.2 ± 3.3 [345 ± 225] % | 3.7 ± 0.4 [341 ± 31.7] % | – | – | – | CYP3A4 mRNA induction (fold increase) (CYP3A4 mRNA expression [2]): > 5 fold; CYP3A4 mRNA induction (result in words) (CYP3A4 mRNA expression [2]): not statistically significant
2 | N=C(Nc1ccccc1)Nc1ccccc1 [1,3-Diphenylguanidine] | 2.7 ± 0.3 [393 ± 128] % | 8.0 ± 13.7 [461 ± 143] % | – | – | – | EC50 (hPXR [3]; PXR Primary EC50): 8 µM; EC50 (hPXR [3]; […]): 2.7 µM
3 | CCCCOCN(C(=O)CCl)c1c(CC)cccc1CC [Butachlor] | 107 ± 26.0% | 119 ± 49.2% | 6.49 ± 2.9 | 4 ± 4 | – | CYP3A4 mRNA induction (fold increase) (CYP3A4 mRNA expression [4]; human): > 5 fold
4 | Cc1nc(Nc2ncc(C(=O)Nc3c(C)cccc3Cl)s2)cc(N2CCN(CCO)CC2)n1 [Dasatinib] | 0.6 ± 0.07 [127 ± 12.0] % | 0.3 ± 0.5 [84.6 ± 22.2] % | – | – | – | –
5 | CCN1C(=O)c2ccccc2C1Nc1ccc(OCCN2CCCCC2)cc1 (stereo not drawn) [Etomidoline] | – | – | 3.2 ± 0.4 | 2.6 ± 1.3 | 175 ± 74.6 | CYP3A4 mRNA induction (result in words) (CYP3A4 mRNA expression [2]): greater extent than the positive control
6 | CC(C)C[C@H](NC(=O)[C@H](Cc1ccccc1)NC(=O)c1cnccn1)B(O)O [Bortezomib] | 0.02 ± 0.004 [83.8 ± 12.8] % | 0.008 ± 0.0005 [97.7 ± 17.9] % | – | – | – | –
7 | Nc1nc(Cl)nc2c1ncn2[C@@H]1O[C@H](CO)[C@@H](O)[C@@H]1F [Clofarabine] | 3.3 ± 0.4 [214 ± 13.9] % | 0.7 ± 0.2 [112 ± 34.6] % | – | – | – | –
8 | O[C@@H](COc1cccc2ncccc12)CN1CCN([C@@H]2c3ccccc3[C@@H]3[C@H](c4ccccc42)C3(F)F)CC1 [Zosuquidar trihydrochloride] | – | – | 1.6 ± 0.3 | 3.2 ± 1.7 | 188 ± 41.7 | –
9 | CCCN(CCC)c1c([N+](=O)[O-])cc(C(F)(F)F)c(N)c1[N+](=O)[O-] [Prodiamine] | 8.5 ± 0.9 [108 ± 6.61] % | 4.7 ± 0.8 [168 ± 31.0] % | – | – | – | EC50 (hPXR [3]; PXR Primary EC50): 4.7 µM; EC50 (hPXR [3]; […]): 8.5 µM
10 | CC[C@H]1CN2CCc3cc(OC)c(OC)cc3[C@@H]2C[C@@H]1C[C@H]1NCCc2cc(OC)c(OC)cc21 [Emetine] | 0.1 ± 0.01 [119 ± 8.89] % | 0.05 ± 0.04 [211 ± 74.0] % | – | – | – | –
11 | O=C(CCCCCCC(=O)Nc1ccccc1)NO [Vorinostat (SAHA), Vorinostat] | – | 7.8 ± 3.8 [182 ± 46.9] % | – | – | – | –
12 | COC(=O)c1c(C(F)F)nc(C(F)(F)F)c(C2=NCCS2)c1CC(C)C [Thiazopyr] | 4.6 ± 0.3 [102 ± 8.66] % | 1.2 ± 1.0 [108 ± 37.9] % | – | – | – | EC50 (hPXR [3]; PXR Primary EC50): 1.2 µM; EC50 (hPXR [3]; […]): 4.6 µM; CYP3A4 mRNA induction (result in words) (CYP3A4 mRNA expression [4]): greater extent than the positive control
13 | Clc1ccc(-c2nc3sccn3c2C=NOCc2ccc(Cl)c(Cl)c2)cc1 [CITCO, 6-(4-Chlorophenyl)imidazo[2,1–b][1, 3]thiazole-5-carbaldehyde O-(3,4-dichlorobenzyl)oxime] | – | – | – | – | – | Change of CYP2B6 mRNA expression in PXR-KO cells (CYP2B6 mRNA expression): significantly decreased; Change of CYP3A4 mRNA induction in PXR-KO cells (CYP3A4 mRNA expression [5]): lack a significant decrease
14 | Cc1cccc(N(C)C(=S)Oc2ccc3c(c2)CCC3)c1 [Tolindate] | – | – | 8.7 ± 1.5 | 8.3 ± 2.3 | 201 ± 37.5 | –
15 | CC(C)C[C@H](NC(=O)[C@H](CCc1ccccc1)NC(=O)CN1CCOCC1)C(=O)N[C@@H](Cc1ccccc1)C(=O)N[C@@H](CC(C)C)C(=O)[C@@]1(C)CO1 [Carfilzomib] | – | – | 0.1 ± 0.02 | 0.04 ± 0.024 | 110 ± 10.3 | –
16 | CCOc1cc(N)c(Cl)cc1C(=O)NCC1CN(Cc2ccc(F)cc2)CCO1 (stereo not drawn) [Mosapride citrate] | – | – | 10.8 ± 1.2 | 8.8 ± 3.3 | 222 ± 59.5 | –
17 | COc1cccc(N(C)C(=S)Oc2ccc3c(c2)CCCC3)n1 [Liranaftate] | 4.5 ± 0.7 [144 ± 16.0] % | 5.5 ± 2.6 [148 ± 42.6] % | – | – | – | CYP3A4 mRNA induction (result in words) (CYP3A4 mRNA expression [4]): greater extent than the positive control
18 | Cc1oc2c(NC(=O)c3c(Cl)cccc3Cl)cccc2c1C(C)(C)O [FR167356] | – | – | – | – | 178 ± 9.77 | EC50 (hPXR [1]): 7.1 ± 1.2 µM; EC50 (hPXR [1]; read-out: PXR Primary EC50, qHTS primary screen, hPXR-Luc HepG2, 24 h): 3 ± 2.2 µM
19 | CCOC(=O)C1=C(C)NC(C)=C(C(=O)OCC)C1c1ccccc1/C=C/C(=O)OC(C)(C)C [Lacidipine] | 10.4 ± 4.4 [115 ± 15.0] % | 5.6 ± 5.5 [155 ± 70.5] % | – | – | – | CYP3A4 mRNA induction (result in words) (CYP3A4 mRNA expression [2]): greater extent than the positive control
20 | COC(=O)C1=C(C)NC(C)=C(C(=O)OC2CCCN(Cc3ccccc3)C2)C1c1cccc([N+](=O)[O-])c1 (racemic) [rac Benidipine hydrochloride] | 4.6 ± 2.3 [105 ± 14.7] % | 5.6 ± 5.4 [141 ± 33.3] % | – | – | – | –

Source: publication PMC9440615 (Biochemical pharmacology, 2020)
